Data from ChEMBL document CHEMBL3228010, “Potential antitumor agents. 29. Quantitative structure-activity relationships for the antileukemic bisquaternary ammonium heterocycles” (J Med Chem, 1979).

What was measured:
Bos taurus = organism: Bos taurus; assay: Displacement of ethidium from calf thymus DNA by fluorimetric method
[1] = Displacement of ethidium from poly[d(A)]-poly[d(T)] DNA (unknown origin) by fluorimetric method
[2] = Lipophilic-hydrophilic balance, Rm of the compound by partition chromatography; format: physicochemical
[3] = Displacement of ethidium from poly[d(G-C)]-poly[d(G-C)] DNA (unknown origin) by fluorimetric method
L1210 [4] = assay: Antitumor activity against mouse L1210 cells […] in ip dosed C3H X DBA2 F1 hybrid mouse on day 0 and dosed at LD10 level once daily on days 1 to 5 assessed as increase in life span relative to control; format: functional
Mus musculus = assay: Toxicity in ip dosed C3H X DBA2 F1 hybrid mouse […] with mouse L1210 cells on day 0 and dosed once daily on days 1 to 5 measured after 50 days; format: organism-based; settings: in vivo, 1200 h
L1210 [5] = assay: Antitumor activity against mouse L1210 cells […] in ip dosed C3H X DBA2 F1 hybrid mouse on day 0 and dosed once daily on days 1 to 5 assessed as increase in life span relative to control; format: functional
[6] = Displacement of ethidium from poly[d(A-T)]-poly[d(A-T)] DNA by fluorimetric method

SMILES	C50 (Bos taurus) [µM]	C50 [1] [µM]	Rm [2]	C50 [3] [µM]	log(ILSmax) (L1210 [4])	LD10 (Mus musculus) [mg/kg]	D40 (L1210 [5]) [mg/kg]	C50 [6] [µM]
COc1cc(NC(=O)c2ccc(C(=O)Nc3ccc(C(=O)Nc4ccc[n+](C)c4)c(OC)c3)cc2)ccc1C(=O)Nc1ccc[n+](C)c1.Cc1ccc(S(=O)(=O)[O-])cc1.Cc1ccc(S(=O)(=O)[O-])cc1	0.4	0.18	0.15	0.35	1.78	41	15	0.3
CC[n+]1ccc(Nc2ccc(NC(=O)c3ccc(Nc4cc[n+](CC)c5cc(N)ccc45)cc3N)cc2)cc1.[Br-].[Br-]	0.52	0.054	0.07	1.11	2.39	11	1.4	0.13
CC[n+]1cccc(NC(=O)c2ccc(NC(=O)c3ccc(C(=O)Nc4ccc(C(=O)Nc5ccc[n+](CC)c5)cc4)cc3)cc2)c1.Cc1ccc(S(=O)(=O)[O-])cc1.Cc1ccc(S(=O)(=O)[O-])cc1	0.48	0.11	-0.32	0.9	2.24	33	9.8	0.4
CCCC[n+]1cccc(NC(=O)c2ccc(NC(=O)c3ccc(C(=O)Nc4ccc(C(=O)Nc5ccc[n+](CCCC)c5)cc4)cc3)cc2)c1.Cc1ccc(S(=O)(=O)[O-])cc1.Cc1ccc(S(=O)(=O)[O-])cc1	0.46	0.14	0.51	0.93	1.76	58	30	0.41
C[n+]1cccc(NC(=O)c2ccc(NC(=O)C34CCC(C(=O)Nc5ccc(C(=O)Nc6ccc[n+](C)c6)cc5)(CC3)CC4)cc2)c1.Cc1ccc(S(=O)(=O)[O-])cc1.Cc1ccc(S(=O)(=O)[O-])cc1	6.8	1.6	0.31	11	2	24	4.3	5.3
C[n+]1cccc(-c2ccc(NC(=O)c3ccc(C(=O)Nc4ccc(-c5ccc(-c6ccc(-c7ccc[n+](C)c7)cc6)cc5)cc4)cc3)cc2)c1.Cc1ccc(S(=O)(=O)[O-])cc1.Cc1ccc(S(=O)(=O)[O-])cc1	0.29	0.16	-0.75	0.37	2.1	65	17.9	0.22
C[n+]1ccc(Nc2ccc(NC(=O)c3ccc(Nc4cc[n+](C)c5ccc(N)cc45)cc3)cc2)cc1.[Br-].[Br-]	0.66	0.048	0.07	1.05	2.35	12	1.2	0.09
C[n+]1ccccc1Nc1ccc(NC(=O)c2ccc(C(=O)Nc3ccc(Nc4cccc[n+]4C)cc3)cc2)cc1.Cc1ccc(S(=O)(=O)[O-])cc1.Cc1ccc(S(=O)(=O)[O-])cc1	5.6	0.15	0.13	8.8	<1.4	16	–	2.8
C/C(=N\NC(=N)N)c1ccc(C(=O)Nc2ccc(Nc3cc[n+](C)c4ccc(N)cc34)cc2)cc1.Cc1ccc(S(=O)(=O)O)cc1.Cc1ccc(S(=O)(=O)[O-])cc1	0.4	0.057	-0.1	0.52	2.37	40	2.6	0.12
C[n+]1ccc(Nc2ccc(NC(=O)c3ccc(Nc4cc[n+](C)c5ccccc45)cc3N)cc2N)cc1.[I-].[I-]	1.76	0.12	0.08	3.17	1.78	18	15	0.79
CCC[n+]1cccc(NC(=O)c2ccc(NC(=O)c3ccc(C(=O)Nc4ccc(C(=O)Nc5ccc[n+](CCC)c5)cc4)cc3)cc2)c1.Cc1ccc(S(=O)(=O)[O-])cc1.Cc1ccc(S(=O)(=O)[O-])cc1	0.44	0.12	0.13	0.9	2.06	27	12.9	0.39
C[n+]1ccc(Nc2ccc(NC(=O)c3ccc(Nc4cc[n+](C)c5ccc(N)cc45)cc3N)cc2)cc1.[I-].[I-]	0.49	0.039	0.01	1.1	2.45	20	2.9	0.1
C[n+]1ccc(Nc2ccc(NC(=O)c3ccc(C(=O)Nc4ccc(Nc5cc[n+](C)cc5)cc4)cc3)cc2)cc1.Cc1ccc(S(=O)(=O)[O-])cc1.Cc1ccc(S(=O)(=O)[O-])cc1	1.3	0.043	0.07	1.8	2.33	3.1	0.3	0.14
C[n+]1ccc(Nc2ccc(NC(=O)c3ccc(Nc4cc[n+](C)c5c(Cl)cccc45)cc3)cc2)cc1.Cc1ccc(S(=O)(=O)[O-])cc1.Cc1ccc(S(=O)(=O)[O-])cc1	1.1	0.038	0.51	1.4	1.7	55	50	0.29
C[n+]1ccc(Nc2ccc(NC(=O)c3ccc(Nc4cc[n+](C)c5ccccc45)cc3)cc2N)cc1.[I-].[I-]	2.25	0.052	0.24	4.76	1.85	8	2.8	0.43
C[n+]1ccc(Nc2ccc(NC(=O)c3ccc(Nc4cc[n+](C)c5ccccc45)cc3)cc2)cc1.[Br-].[Br-]	1.4	0.036	0.29	3	2.23	13	2	0.16
Cc1cc(C(=O)Nc2ccc[n+](C)c2)ccc1NC(=O)c1ccc(C(=O)Nc2ccc(C(=O)Nc3ccc[n+](C)c3)cc2C)cc1.Cc1ccc(S(=O)(=O)[O-])cc1.Cc1ccc(S(=O)(=O)[O-])cc1	11.7	0.35	0.12	16.7	1.79	40	27	6
C[n+]1ccc(Nc2ccc(NC(=O)c3ccc(Nc4cc[n+](C)c5c(N)cccc45)cc3)cc2)cc1.[I-].[I-]	0.85	0.056	-0.1	1.43	2.48	60	0.9	0.2
C[n+]1ccc(Nc2ccc(NC(=O)c3ccc(Nc4cc[n+](C)c5ccc(N)cc45)cc3)cc2N)cc1.[I-].[I-]	0.71	0.067	-0.03	1.3	2.18	3	0.7	0.23
